Data set [1] has as its system bacteria. The experiment in a line: Bacterial growth inhibition, broth microdilution (CLSI M07-A10). The following applies: for IC50: growth inhibition. It is filed as cell-based. From the text:
Assay: Broth microdilution by the method of: Clinical and Laboratory Standards Institute, Ed., Methods for dilution antimicrobial susceptibility tests for bacteria that grow aerobically: M07-A10; approved standard (Committee for Clinical Laboratory Standards, Wayne, PA, 10. ed., 2015), Documents/Clinical and Laboratory Standards Institute.

A short description of data set [2]: Solubility in growth medium of the transcription assay. Type of data set: physicochemical. On the set-up: key: *: poor solubility in test medium.
The subject of data set [3] is σ^E-mediated transcription. The experiment in a line: σ^E-mediated transcription inhibition, E. coli reporter assay. Type of data set: cell-based. The following applies: Escherichia coli. The protocol: The selected exemplified compounds were tested for inhibition of σ^E-mediated transcription using an E. coli reporter assay according to the protocol described in U.S. Pat. No. 8,962,550, which is incorporated herein by reference.
On the technique in general: Reporter assays use an easily measured gene product as a stand-in for the process of interest.

A short description of data set [4]: Plasma binding. It is filed as in vitro ADME. The settings on record: for free compound: serum and plasma binding.
The subject of data set [5] is HeLa (cervical cancer cells). The experiment in a line: Cytotoxicity, propidium iodide fluorescence, HeLa cells. Type of data set: cell-based, Human. Also noted: key: % cytotoxicity relative to positive control (100% cell lysis). The following applies: 24 h, relative to positive control (100% cell lysis). The protocol:
(§1) Assay: HUVEC (Human Umbilical Vein Endothelial Cells) and HeLa (cervical cancer cells) were seeded into 96-well culture plates at a density of 1.5×10^5 cells/ml in endothelial cell or DMEM growth medium, supplemented with 10% fetal bovine serum and no antibiotic. Cells were cultured for 24 h before assay setup. Compounds were diluted in the corresponding growth medium and tested in triplicate at 10× and 20× the minimum bacterial growth inhibitory concentrations. Growth media in the 96-well plate was aspirated off and replaced with media containing the test compounds or DMSO (0.5%, vol/vol). The plates were incubated at 37° C. in a 5% CO2 incubator for 24 h. A positive control sample was prepared by replacing media in designated wells with a solution containing a cell lysis reagent. Propidium iodide was then added at 5 μM/well and the plate was incubated for 10 minutes at room temperature. Fluorescence was then recorded using a SpectraMax i3 (Molecular Devices) at λex 535 nm/λem 617 nm. Cytotoxicity was determined by quantifying the fluorescence values for each compound relative to the positive control (100% cell lysis). For selected exemplified compounds, cytotoxicity against HeLa and HuVEC cells was measured at 10× and 20×MIC.

The subject of data set [6] is CYP (isoform not given). Description: HLM CYP inhibition. The settings on record: human, human liver microsomes.
Data set [7] concerns HUVEC (Human Umbilical Vein Endothelial Cells). Description: Cytotoxicity, propidium iodide fluorescence, HuVEC cells. The settings on record: 24 h, relative to positive control (100% cell lysis). It is filed as cell-based. Also noted: key: % cytotoxicity relative to positive control (100% cell lysis). The protocol:
as §1

Data set [8] can be described thus: Serum binding. Type of data set: in vitro ADME.
Data set [9] relates to CYP.
Data set [10] deals with CYP. The experiment in a line: HLM CYP inhibition.
Data set [11] can be described thus: Stability in human liver microsomes (intrinsic clearance). On the technique in general: Liver microsomes are vesicles of endoplasmic reticulum, rich in cytochrome P450 enzymes.

Values after ≈ are worked out from the molar mass of the structure shown. Like-named read-outs stand apart in the source and are kept apart here. A value given as a limit tells only on which side of the number the result lay.

As a reminder, the MIC is the smallest concentration in the dilution series that meets the test's criterion for growth inhibition. As usually defined, the IC50 is the concentration needed to halve the response being measured.

In data set [1], `Cc1cc(F)ccc1-c1cccc(Nc2ccncc2)n1` [Compound 2170] returned a minimal inhibitory concentration (MIC) of 14 µg/mL (≈ 50.1 µM) and a half-inhibitory concentration (IC50) of 6.8 µg/mL (≈ 24.3 µM).
For `Cc1cc(F)ccc1-c1cccc(Nc2ccccc2)n1` [Compound 39704], the “Human Liver Microsomes Intrinsic Clearance (CLint)” value turned out to be 5.38 mL/min/g liver. Also, the “solubility in test medium” value in data set [2] is listed as “*”. For the same molecule, the IC50 in data set [3] was 11 µg/mL (≈ 39.5 µM). Also, in data set [4], the “% plasma binding” value was found to be 99.9% and the free compound entry is listed as “no detectable free compound”. Moreover, in data set [5], the “Cytotoxicity at 10× MIC HeLa” value is listed as 11 and the “Cytotoxicity at 20× MIC HeLa” value is reported as 11. This molecule showed an IC50 in data set [6] of 13.5 µM. Besides, in data set [7], the “Cytotoxicity at 10× MIC HuVEC” value is given as 15 and the “Cytotoxicity at 20× MIC HuVEC” value worked out at 21. The “% serum binding” value in data set [8] is listed as 100%. In [9], the “IC50 for CYP inhibition over the MIC” value is given as “more than 5 ×”. In [1], this molecule showed an MIC of 1.7 to 3.5 µg/mL (≈ 6.11 to 12.6 µM) and a 50% inhibitory concentration (IC50) of 0.9 to 2.8 µg/mL (≈ 3.23 to 10.1 µM).
In data set [1], `Cc1cc(F)ccc1-c1cccc(NS(=O)(=O)c2ccccc2)n1` [Compound 39705] yielded an MIC of 34 µg/mL (≈ 99.3 µM) and a half-inhibitory concentration (IC50) of 16 µg/mL (≈ 46.7 µM).
In data set [1], `Cc1cc([N+](=O)[O-])ccc1-c1cccc(Nc2ccncc2)n1` [Compound 39709] gave an MIC of 117 µg/mL (≈ 382 µM).
Same read-out and setting: with `c1cc(Nc2ccncc2)nc(C2CCCCC2)c1` [Compound 39710] the figure was 51 µg/mL (≈ 201 µM).
In data set [1], `c1ccc(-c2cccc(Nc3ccncc3)n2)cc1` [Compound 39711] displayed an MIC of 6.2 µg/mL (≈ 25.1 µM) and a 50% inhibitory concentration (IC50) of 3.7 µg/mL (≈ 15 µM).
Regarding `Cc1cc(F)ccc1-c1cc(Nc2ccccc2)ccn1` [Compound 39712], the lowest concentration to inhibit growth in data set [1] (MIC) was 21 µg/mL (≈ 75.5 µM).
Still for that read-out and setting: with `Cc1cc(F)ccc1-c1cccc(NS(=O)(=O)c2cccc3c(N(C)C)cccc23)n1` [Compound 39713] the figure was 87 µg/mL (≈ 200 µM); with `Cc1cc(F)ccc1-c1cccc(Nc2ccc(N=[N+]=[N-])cc2)n1` [Compound 39714], 64 µg/mL (≈ 200 µM).
The same measure, in the same setting: with `Cc1cc(F)ccc1-c1cccc(Nc2ccc(C#C[Si](C)(C)C)cc2)n1` [Compound 39715] the figure was 75 µg/mL (≈ 200 µM); with `Cc1cc(F)ccc1-c1cc(NC(=O)c2ccco2)ccn1` [Compound 39717], 50 µg/mL (≈ 169 µM).
Still for that read-out and setting: with `c1ccc(COc2ccc(-c3cccc(Nc4ccncc4)n3)cc2)cc1` [Compound 39718] the figure was 35 µg/mL (≈ 99 µM).
For the molecule `Cc1cc(F)ccc1-c1cccc(NC(=O)c2cccc(Cl)c2)n1` [Compound 39720], the “Human Liver Microsomes Intrinsic Clearance (CLint)” value amounted to 1.51 mL/min/g liver. Also, the “solubility in test medium” value in data set [2] is listed as “*”. Moreover, the IC50 in data set [3] is around 34.1 µg/mL (≈ 100 µM). Also, in [5], the “Cytotoxicity at 10× MIC HeLa” value was 8 and the “Cytotoxicity at 20× MIC HeLa” value is 8. In addition, in data set [7], the “Cytotoxicity at 10× MIC HuVEC” value worked out at 10 and the “Cytotoxicity at 20× MIC HuVEC” value is recorded as 10. In data set [1], this molecule had an MIC of 4.3 µg/mL (≈ 12.6 µM) and a 50% inhibitory concentration (IC50) of 2.4 µg/mL (≈ 7.04 µM).
In data set [1], `Cc1cc(F)ccc1-c1cccc(NC(=O)c2ccccc2)n1` [Compound 39721] registered an MIC of 20 µg/mL (≈ 65.3 µM).
The molecule `Cc1cc(F)ccc1-c1cccc(Nc2ccc([N+](=O)[O-])c3nonc23)n1` [Compound 39722] yielded an MIC in data set [1] of 73 µg/mL (≈ 200 µM).
For the molecule `Cc1cc(F)ccc1-c1cccc(-c2cn(-c3ccncc3)nn2)c1` [Compound 39724], the “Human Liver Microsomes Intrinsic Clearance (CLint)” value is 0.37 mL/min/g liver. In addition, half-maximal inhibition in data set [3] (IC50) was put at 6.6 µg/mL (≈ 20 µM). The “% plasma binding” value in data set [4] amounted to 99.5%. Moreover, in data set [5], the “Cytotoxicity at 10× MIC HeLa” value was 11 and the “Cytotoxicity at 20× MIC HeLa” value was determined as 14. The half-maximal inhibitory concentration (IC50) in [6] came out at 3.55 µM. For the same molecule, in data set [7], the “Cytotoxicity at 10× MIC HuVEC” value amounted to 16 and the “Cytotoxicity at 20× MIC HuVEC” value worked out at 19. Besides, the “% serum binding” value in [8] amounted to 94.6%. In data set [1], the minimal inhibitory concentration (MIC) fell in the range of 3.3 to 4.1 µg/mL (≈ 9.99 to 12.4 µM) and the IC50 is 1.6 to 2.3 µg/mL (≈ 4.84 to 6.96 µM).
`Cc1cc(F)ccc1-c1ccc(-c2cn(-c3ccncc3)nn2)cc1` [Compound 39730] registered a minimum inhibitory concentration (MIC) in [1] of 66 µg/mL (≈ 200 µM).
Take `Cc1cc(F)ccc1-c1cccc(NC(=O)c2ccccc2)c1` [Compound 39731]: the “Human Liver Microsomes Intrinsic Clearance (CLint)” value is reported as 2.12 mL/min/g liver. Besides, in data set [2], the “solubility in test medium” value is recorded as “*”. In data set [3], this molecule returned an IC50 of around 60 µg/mL (≈ 196 µM). For the same molecule, in data set [4], the “% plasma binding” value is given as 99.8%. Besides, in [5], the “Cytotoxicity at 10× MIC HeLa” value came out at 8 and the “Cytotoxicity at 20× MIC HeLa” value is 10. In addition, the “inhibition of CYP” value in data set [10] was “no detectable inhibition”. Also, the IC50 in [6] was above 33 µM. In addition, in [7], the “Cytotoxicity at 10× MIC HuVEC” value was found to be 14 and the “Cytotoxicity at 20× MIC HuVEC” value was 14. Also, in [8], the “% serum binding” value was found to be 99.7%. Moreover, in [1], the MIC was found to be 7.6 µg/mL (≈ 24.9 µM) and the 50% inhibitory concentration (IC50) lay in the range of 1.6 to 3.4 µg/mL (≈ 5.24 to 11.1 µM).
For `Cc1cc(F)ccc1-c1cccc(NC(=O)c2cccc(Cl)c2)c1` [Compound 39732], in data set [1], the MIC was 8.5 µg/mL (≈ 25 µM) and the IC50 stood at 5.9 µg/mL (≈ 17.4 µM).
On to `Cc1cc(F)ccc1-c1cccc(NC(=O)c2ccco2)c1` [Compound 39733], for which, in data set [1], the MIC worked out at 29 µg/mL (≈ 98.2 µM) and the IC50 was found to be 16 µg/mL (≈ 54.2 µM).
For `Cc1cc(F)ccc1-c1cccc(Nc2ccc(S(C)(=O)=O)cc2)c1` [Compound 39734] the same measures were 28 µg/mL (≈ 78.8 µM) and 22 µg/mL (≈ 61.9 µM).
Turning to `Cc1cc(F)ccc1-c1cccc(-c2cn(C3CCSCC3)nn2)c1` [Compound 39735], the minimal inhibitory concentration (MIC) in [1] turned out to be 35 µg/mL (≈ 99 µM).
As for `Cc1cc(F)ccc1-c1cccc(-c2cn(-c3cccc4ncccc34)nn2)c1` [Compound 39739], it took 38 µg/mL (≈ 99.9 µM) to inhibit growth in [1] (MIC).
On the same count and under the same terms, under `Cc1cc(F)ccc1-c1cccc(Nc2ccncc2)c1` [Compound 39744] stands 14 µg/mL (≈ 50.3 µM).
Regarding `c1ccc(-c2cccc(-c3cn(-c4ccncc4)nn3)c2)cc1` [Compound 39748], the “Human Liver Microsomes Intrinsic Clearance (CLint)” value is 1.28 mL/min/g liver. This molecule also had an IC50 in [3] of 2.6 µg/mL (≈ 8.71 µM). In [4], the “% plasma binding” value is 99.7%. Moreover, in data set [5], the “Cytotoxicity at 10× MIC HeLa” value stood at 14 and the “Cytotoxicity at 20× MIC HeLa” value is on record as 14. Further, the concentration for half-maximal inhibition (IC50) in data set [6] stood at 1.48 µM. In [7], the “Cytotoxicity at 10× MIC HuVEC” value is 15 and the “Cytotoxicity at 20× MIC HuVEC” value amounted to 21. In data set [8], the “% serum binding” value came out at 99.7%. In data set [1], this molecule had an MIC of 7.6 µg/mL (≈ 25.5 µM) and an IC50 of 2.6 µg/mL (≈ 8.71 µM).
On to `O=C(Nc1cccc(-c2ccccc2)c1)c1cccc(C(F)(F)F)c1` [Compound 39751], for which the “Human Liver Microsomes Intrinsic Clearance (CLint)” value came to 4.35 mL/min/g liver. The same molecule displayed an IC50 in data set [3] of 4.3 µg/mL (≈ 12.6 µM). Moreover, in data set [4], the “% plasma binding” value is reported as 99.9% and the free compound result is recorded as “no detectable free compound”. Moreover, in [5], the “Cytotoxicity at 10× MIC HeLa” value is listed as 9 and the “Cytotoxicity at 20× MIC HeLa” value was determined as 7. In [10], the “inhibition of CYP” value is “no detectable inhibition”. For the same molecule, the half-maximal inhibitory concentration (IC50) in data set [6] is above 33 µM. Further, in data set [7], the “Cytotoxicity at 10× MIC HuVEC” value is given as 17 and the “Cytotoxicity at 20× MIC HuVEC” value is reported as 14. Moreover, the “% serum binding” value in data set [8] turned out to be 99.9%. In data set [1], this molecule showed an MIC of 8.5 µg/mL (≈ 24.9 µM) and a half-inhibitory concentration (IC50) of 4.6 µg/mL (≈ 13.5 µM).
Regarding `Cc1ncc2n1-c1ccc(Cl)cc1C(c1ccccc1F)=NC2` [Midazolam control, Midazolam], the “Human Liver Microsomes Intrinsic Clearance (CLint)” value in data set [11] was 9.04 mL/min/g liver.
